Test results as given in patent US7932376B2, “Pyrimidine-based non-nucleotide composition and method for inhibiting platelet aggregation” (Inspire Pharmaceuticals, Inc., priority 2005, dated 2011).
Where two headings read alike, the source gives them in different places.

Test system: ADP-induced aggregation of washed platelets
Experiment: Inhibition of ADP-induced aggregation of washed platelets
Assay type: cell-based
Details: human washed platelets, light transmission aggregometry, 2 min pre-incubation with inhibitor before ADP, read-out: IC50 as inhibitors of ADP-induced aggregation of washed platelets
Method: Isolation of platelets: Human blood is obtained from informed healthy adult volunteers. Blood is collected into one-sixth volume of acid/citrate/dextrose (ACD) buffer (85 mM sodium citrate, 65 mM citric acid, and 110 mM glucose). Collected blood is placed in a water bath at 37° C. for 30 minutes. Blood is then centrifuged at 275×g for 16 minutes at room temperature and the platelet-rich plasma is removed and centrifuged at 2200×g for 13 minutes at room temperature. […]
Aggregation Studies: ADP-induced platelet aggregation is determined by measuring the transmission of light through a 0.5 ml suspension of stirred (1000 rpm) washed platelets in a lumi-aggregometer at 37° C. […] Platelet aggregation is initiated by the addition of indicated concentrations of ADP or other agonists, and the light transmission is continuously recorded for at least 8 min. When inhibitors of platelet aggregation are tested, platelets are incubated for 2 min in the presence of indicated concentrations of inhibitor before addition of ADP or other agonists, and the response is recorded for at least 8 min. The potency of agonists and inhibitors of platelet aggregation is calculated from both the rate of aggregation and the maximal extent of aggregation obtained for each determination by fitting the data to a four-parameter logistic equation using the GraphPad software package (GraphPad Corp. San Diego, Calif.). […]

Row | IC50 (Platelet) [µM] | IC50 [µM] | SMILES
1 | 23.5 |  | CCNC(=O)Nc1ccn([C@@H]2O[C@H](COCc3ccccc3C(=O)O)C3O[C@H](/C=C/c4ccccc4)O[C@@H]32)c(=O)n1 (stereo partly drawn) [Compound 1, 2′,3′-trans-cinnamylacetal-5′-(2-carboxy)benzyloxy-6-N-ethylurea cytidine]
2 |  | 1.3 | CCNC(=O)Nc1ccn(C2OC(COCc3c(F)cccc3C(=O)O)C3OC(/C=C/c4ccccc4)OC32)c(=O)n1 (stereo not drawn) [Compound 2, 2′,3′-trans-cinnamylacetal-5′-(2-carboxy-6-fluoro)benzyloxy-6-N-ethylurea cytidine]
